In patent publication US10655161B2, “Diagnostic and prognostic assays based on circulating tyrosine kinase activity” (Quest Diagnostics Investments Incorporated, priority 2010, dated 2020):

Test system: cTK activity in plasma from a CML patient harboring the T315I mutation
Experiment: Ex vivo plasma cTK activity assay, plasma from a multidrug-resistant CML patient with T315I mutation
Format: biochemical, human
Details: 1-5 μM imatinib (FIG. 2A)
Procedure: After incubation at 37° C. for 30 min, the PY20-HRP solution was replaced by HRP substrate solution (TMBZ).

SMILES: Cc1ccc(NC(=O)c2ccc(CN3CCN(C)CC3)cc2)cc1Nc1nccc(-c2cccnc2)n1 [Imatinib, imatinib]
- Inhibition of cTK activity: little inhibition
